Here are results for one compound from patent publication US20120265121A1, “PHTHALOCYANINE-BASED ANTIFUNGAL AGENTS” (CASE WESTERN RESERVE UNIVERSITY, priority 2011, published 2012).

Data set [1] deals with C. albicans (strain SC-5134). The data set can be described thus: XTT reduction metabolic activity assay. The data set is classed as cell-based, Candida albicans. The protocol:
Metabolic Activity Assay: XTT reduction assays were performed according to the procedure of Chandra et al. Chandra et al., Nature Protocol. 3(12): 1909-2 (2008). Briefly, in the dark, aliquots of 2 ml of cells were treated with 200 nM of Pc 4 in 10% FBS standard growth medium in a 37° C. shaker. The next day, the cells were photoirradiated with red light using a light-emitting diode array (EFOS, Mississauga, Ontario, Canada) at a fluence of 200, 500, 1000 and 2000 mil/cm^2 (1 milliwat/cm^2, ymax ˜670-675 nm) at room temperature. For negative controls, a 2 ml aliquot was not photoirradiated and a 2 ml aliquot simply was loaded overnight with an appropriate amount of N′,N′-dimethylformamide and then photoirridated with the highest fluence the next day. For positive control, either cells were treated with 30% ethanol or 1 uM of Thapsigargin. […] One ml of each treatment condition was used to incubate with XTT (final concentration 1 mg/ml) and menadione (final concentration 1 mM) for 5 hours in the dark and then transferred to 1 ml plastic cuvette for absorbance measurement. Colorimetric changes, which reflect the viability of the cells given different treatment conditions, were measured at 492-nm using a spectrophotometer (Spectronic Genesys™ 5, Analytical Instrument, Golden Valley, Minn., USA). […]
In general terms: Tetrazolium assays rely on reduction of a dye to a coloured formazan, in cell work by metabolically active cells.

Data set [2] has as its system C. albicans (strain SC-5134). The data set can be described thus: Chromatin condensation by confocal microscopy. As to conditions: highest dose of Pc 4-PDT or peroxide, 24 hr after treatment. It counts as cell-based, Candida albicans. The protocol: Confocal Microscopy: To investigate the uptake and localization of Pc 4, cells in standard growth medium plus 10% Fetal Bovine Serum (FBS) were loaded with 0.2 μM Pc 4 and incubated for 16 to 18 hr. Thirty minutes prior to imaging Pc 4, 50 nM MitoTracker Red (Invitrogen, Carlsbad, Calif., USA) or 50 μg/mL AlexaFluor 488-conjugated Concanavalin (Con) A (Invitrogen, Carlsbad, Calif., USA) and/or 10 μg/mL Hoechst 33342 (Invitrogen, Carlsbad, Calif., USA) was loaded onto cells. Five to 10 μL of stained cells were placed on a slide with a glass coverslip and all images acquired using an UltraVIEW VoX spinning disk confocal system (PerkinElmer, Waltham, Mass., USA), which was mounted on a Leica DMI6000B microscope (Leica Microsystems, Inc., Bannockburn, Ill., USA) equipped with a HCX PL APO 100×/1.4 oil immersion objective. Confocal images of Pc 4 fluorescence, MitoTracker Red, ConA (or FITC-labeled Annexin V) and Hoechst 33342 were collected using solid-state diode lasers, with 640-nm, 561-nm, 488-nm and 405-nm excitation light, respectively, and with appropriate emission filters.

In a further data set the test system is T. rubrum. The data set can be described thus: Turbidity growth assay of microconidia after Pc 4-PDT. It counts as cell-based, Trichophyton rubrum. As to conditions: Pc 4 up to 2 μM, 2.0 J/cm^2. Here is the method:
Terbinafine sensitive (23013) and resistant (MRL666) strains of T. rubrum were grown onto Sabouraud potato agar plate for at least 24 hours at 28° C. Microconidia were separated from most of the hyphae form before treating with Pc 4-PDT.

For data set [3] the following is noted: topical application; cited from earlier work.
The conditions of data set [4]: light dose 50 J/cm^2; cited from earlier work.

Turning to `CN(C)CCC[Si](C)(C)O[Si]1(O)n2c3c4ccccc4c2N=C2N=C(N=c4c5ccccc5c(n41)=NC1=NC(=N3)c3ccccc31)c1ccccc12` (stereo not shown) [Pc 4, HOSiPcOSi(CH3)2(CH2)3N(CH3)2], the “metabolic activity (XTT, percent viability), FIG. 1” value in data set [1] (200 nM Pc 4 + 0.2-2.0 J/cm^2) is “impairs fungal metabolic activity”. Besides, the “reduction of metabolic activity (XTT)” value in data set [1] (highest Pc 4-PDT dose (1.0 μM, 2.0 J/cm^2), within an hour following photoirradiation) was ~50%. Further, the chromatin condensation entry in data set [2] is reported as “detected”. Further, the growth of microconidia entry in the data set on T. rubrum (terbinafine resistant strain MRL666) and in the data set on T. rubrum (terbinafine sensitive strain 23013) was “inhibited by Pc 4-PDT in a dose response fashion” throughout. The “penetration through stratum corneum and epidermis” value in data set [3] was “penetrate through the stratum corneum and epidermis”. In data set [4], the tolerability result was “well-tolerated”.
